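Briefly, cells in 96-well plates were exposed to five compound concentrations for 48 h, and endpoints were estimated by linear interpolation. GI50 marks 50% less growth. TGI is the concentration that stops growth completely.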
Assays:
Assay in all cases: DTP human tumour cell line panel, 48 h
SK-MEL-5 melanoma = test system: SK-MEL-5 melanoma
LOX IMVI melanoma = test system: LOX IMVI melanoma
RPMI-8226 leukemia = test system: RPMI-8226 leukemia
NCI-H522 lung = test system: NCI-H522 lung
HL-60(TB) leukemia = test system: HL-60(TB) leukemia
OVCAR-3 ovarian = test system: OVCAR-3 ovarian
CCRF-CEM leukemia = test system: CCRF-CEM leukemia
T-47D breast = test system: T-47D breast
NCI-H23 lung = test system: NCI-H23 lung
786-0 renal = test system: 786-0 renal
SF-295 CNS = test system: SF-295 CNS
SK-MEL-28 melanoma = test system: SK-MEL-28 melanoma
IGROV1 ovarian = test system: IGROV1 ovarian
U251 CNS = test system: U251 CNS
KM12 colon = test system: KM12 colon
CAKI-1 renal = test system: CAKI-1 renal
SNB-75 CNS = test system: SNB-75 CNS
OVCAR-8 ovarian = test system: OVCAR-8 ovarian
HCC-2998 colon = test system: HCC-2998 colon
SF-539 CNS = test system: SF-539 CNS
A549 NSCLC = test system: A549 NSCLC
ACHN renal = test system: ACHN renal
HS 578T breast = test system: HS 578T breast
PC-3 prostate = test system: PC-3 prostate
MALME-3M melanoma = test system: MALME-3M melanoma
SK-MEL-2 melanoma = test system: SK-MEL-2 melanoma
UO-31 renal = test system: UO-31 renal
HCT-116 colon = test system: HCT-116 colon
HCT-15 colon = test system: HCT-15 colon
NCI-H226 lung = test system: NCI-H226 lung
UACC-62 melanoma = test system: UACC-62 melanoma
SF-268 CNS = test system: SF-268 CNS
MCF7 breast = test system: MCF7 breast
SNB-19 CNS = test system: SNB-19 CNS
EKVX NSCLC = test system: EKVX NSCLC
NCI-H460 lung = test system: NCI-H460 lung
BT-549 breast = test system: BT-549 breast
SW-620 colon = test system: SW-620 colon
HOP-62 NSCLC = test system: HOP-62 NSCLC
MOLT-4 leukemia = test system: MOLT-4 leukemia
K-562 leukemia = test system: K-562 leukemia
M14 melanoma = test system: M14 melanoma
TK-10 renal = test system: TK-10 renal
DU-145 prostate = test system: DU-145 prostate
RXF 393 renal = test system: RXF 393 renal
NCI/ADR-RES ovarian = test system: NCI/ADR-RES ovarian
SN12C renal = test system: SN12C renal
COLO 205 colon = test system: COLO 205 colon
SR leukemia = test system: SR leukemia
A498 renal = test system: A498 renal
MDA-MB-435 = test system: MDA-MB-435
HOP-92 NSCLC = test system: HOP-92 NSCLC
UACC-257 melanoma = test system: UACC-257 melanoma
MDA-MB-231 breast = test system: MDA-MB-231 breast
OVCAR-5 ovarian = test system: OVCAR-5 ovarian
HT29 colon = test system: HT29 colon
SK-OV-3 ovarian = test system: SK-OV-3 ovarian
OVCAR-4 ovarian = test system: OVCAR-4 ovarian

## COC1=C(C)C(=O)c2c(c(CCCl)c3n2CCC3OC(C)=O)C1=O (configuration not stated)
SK-MEL-5 melanoma
  GI50: 84.9 nM
  TGI: 228 nM
LOX IMVI melanoma
  GI50: 204 nM
  TGI: 927 nM
RPMI-8226 leukemia
  GI50: 2840 nM
  TGI: 27300 nM
NCI-H522 lung
  GI50: 192 nM
  TGI: 850 nM
HL-60(TB) leukemia
  GI50: 2430 nM
  TGI: 33600 nM
OVCAR-3 ovarian
  GI50: 1480 nM
  TGI: 5430 nM
CCRF-CEM leukemia
  GI50: 3330 nM
  TGI: > 95800 nM
T-47D breast
  GI50: 8220 nM
  TGI: > 94600 nM
NCI-H23 lung
  GI50: 58.6 nM
  TGI: 992 nM
786-0 renal
  GI50: 287 nM
  TGI: 1240 nM
SF-295 CNS
  GI50: 153 nM
  TGI: 864 nM
SK-MEL-28 melanoma
  GI50: 310 nM
  TGI: 1090 nM
IGROV1 ovarian
  GI50: 1650 nM
  TGI: 10100 nM
U251 CNS
  GI50: 273 nM
  TGI: 13400 nM
KM12 colon
  GI50: 642 nM
  TGI: 3050 nM
CAKI-1 renal
  GI50: 350 nM
  TGI: 2150 nM
SNB-75 CNS
  GI50: 141 nM
  TGI: 376 nM
OVCAR-8 ovarian
  GI50: 897 nM
  TGI: 19400 nM
HCC-2998 colon
  GI50: 204 nM
  TGI: 582 nM
SF-539 CNS
  GI50: 157 nM
  TGI: 545 nM
A549 NSCLC
  GI50: 165 nM
  TGI: 913 nM
ACHN renal
  GI50: 142 nM
  TGI: 417 nM
HS 578T breast
  GI50: 417 nM
  TGI: 3620 nM
PC-3 prostate
  GI50: 749 nM
  TGI: 14300 nM
MALME-3M melanoma
  GI50: 188 nM
  TGI: 414 nM
SK-MEL-2 melanoma
  GI50: 319 nM
  TGI: 1000 nM
UO-31 renal
  GI50: 241 nM
  TGI: 739 nM
HCT-116 colon
  GI50: 791 nM
  TGI: > 22800 nM
HCT-15 colon
  GI50: 155 nM
  TGI: 2350 nM
NCI-H226 lung
  GI50: 246 nM
  TGI: 1030 nM
UACC-62 melanoma
  GI50: 208 nM
  TGI: 578 nM
SF-268 CNS
  GI50: 310 nM
  TGI: 17600 nM
MCF7 breast
  GI50: 71 nM
  TGI: 1850 nM
SNB-19 CNS
  GI50: 272 nM
  TGI: 18200 nM
EKVX NSCLC
  GI50: 2090 nM
  TGI: 7300 nM
NCI-H460 lung
  GI50: 38.9 nM
  TGI: 1290 nM
BT-549 breast
  GI50: 149 nM
  TGI: 652 nM
SW-620 colon
  GI50: 453 nM
  TGI: 12300 nM
HOP-62 NSCLC
  GI50: 122 nM
  TGI: 793 nM
MOLT-4 leukemia
  GI50: 4110 nM
  TGI: > 100000 nM
K-562 leukemia
  GI50: 1650 nM
  TGI: > 33100 nM
M14 melanoma
  GI50: 171 nM
  TGI: 592 nM
TK-10 renal
  GI50: 260 nM
  TGI: 626 nM
DU-145 prostate
  GI50: 24.8 nM
  TGI: 1690 nM
RXF 393 renal
  GI50: 167 nM
  TGI: 390 nM
NCI/ADR-RES ovarian
  GI50: 447 nM
  TGI: 8470 nM
SN12C renal
  GI50: 391 nM
  TGI: 15400 nM
COLO 205 colon
  GI50: 136 nM
  TGI: 399 nM
SR leukemia
  GI50: 155 nM
  TGI: > 32500 nM
A498 renal
  GI50: 63.2 nM
  TGI: 166 nM
MDA-MB-435
  GI50: 523 nM
  TGI: 1970 nM
HOP-92 NSCLC
  GI50: 4480 nM
  TGI: 24000 nM
UACC-257 melanoma
  GI50: 227 nM
  TGI: 733 nM
MDA-MB-231 breast
  GI50: 17500 nM
  TGI: 61700 nM
OVCAR-5 ovarian
  GI50: 325 nM
  TGI: 9320 nM
HT29 colon
  GI50: 152 nM
  TGI: 1890 nM
SK-OV-3 ovarian
  GI50: 279 nM
  TGI: 983 nM
OVCAR-4 ovarian
  GI50: 7180 nM
  TGI: 38600 nM

## CC(C)(C)CC(C)(C)c1ccc(O)c(Cc2ccc(Cl)cc2Cl)c1
SK-MEL-5 melanoma
  GI50: 1600 nM
  TGI: 2950 nM
LOX IMVI melanoma
  GI50: 1530 nM
  TGI: 2860 nM
RPMI-8226 leukemia
  GI50: 1240 nM
  TGI: 3660 nM
NCI-H522 lung
  GI50: 1370 nM
  TGI: 2700 nM
HL-60(TB) leukemia
  GI50: 2010 nM
  TGI: 3720 nM
OVCAR-3 ovarian
  GI50: 1740 nM
  TGI: 3110 nM
CCRF-CEM leukemia
  GI50: 1530 nM
  TGI: 3190 nM
T-47D breast
  GI50: 1350 nM
  TGI: 2690 nM
NCI-H23 lung
  GI50: 1530 nM
  TGI: 2890 nM
786-0 renal
  GI50: 1650 nM
  TGI: 3100 nM
SF-295 CNS
  GI50: 1620 nM
  TGI: 2980 nM
SK-MEL-28 melanoma
  GI50: 1610 nM
  TGI: 2960 nM
IGROV1 ovarian
  GI50: 1700 nM
  TGI: 3120 nM
U251 CNS
  GI50: 1560 nM
  TGI: 2900 nM
KM12 colon
  GI50: 1630 nM
  TGI: 3000 nM
CAKI-1 renal
  GI50: 1310 nM
  TGI: 2580 nM
SNB-75 CNS
  GI50: 1690 nM
  TGI: 3080 nM
OVCAR-8 ovarian
  GI50: 1610 nM
  TGI: 2960 nM
HCC-2998 colon
  GI50: 1790 nM
  TGI: 3250 nM
SF-539 CNS
  GI50: 1840 nM
  TGI: 3360 nM
A549 NSCLC
  GI50: 1510 nM
  TGI: 2830 nM
ACHN renal
  GI50: 1680 nM
  TGI: 3050 nM
HS 578T breast
  GI50: 1710 nM
  TGI: 3720 nM
PC-3 prostate
  GI50: 1540 nM
  TGI: 2880 nM
MALME-3M melanoma
  GI50: 1680 nM
  TGI: 3240 nM
SK-MEL-2 melanoma
  GI50: 1440 nM
  TGI: 2950 nM
UO-31 renal
  GI50: 1500 nM
  TGI: 2830 nM
HCT-116 colon
  GI50: 1660 nM
  TGI: 3160 nM
HCT-15 colon
  GI50: 1740 nM
  TGI: 3180 nM
NCI-H226 lung
  GI50: 1530 nM
  TGI: 2870 nM
UACC-62 melanoma
  GI50: 1700 nM
  TGI: 3070 nM
SF-268 CNS
  GI50: 1600 nM
  TGI: 2950 nM
MCF7 breast
  GI50: 1520 nM
  TGI: 2850 nM
SNB-19 CNS
  GI50: 1820 nM
  TGI: 3210 nM
EKVX NSCLC
  GI50: 1570 nM
  TGI: 2940 nM
NCI-H460 lung
  GI50: 1620 nM
  TGI: 2970 nM
BT-549 breast
  GI50: 2030 nM
  TGI: 3520 nM
SW-620 colon
  GI50: 1640 nM
  TGI: 2990 nM
HOP-62 NSCLC
  GI50: 1420 nM
  TGI: 2720 nM
MOLT-4 leukemia
  GI50: 1660 nM
  TGI: 3440 nM
K-562 leukemia
  GI50: 2090 nM
  TGI: 3830 nM
M14 melanoma
  GI50: 1610 nM
  TGI: 3080 nM
TK-10 renal
  GI50: 1540 nM
  TGI: 2870 nM
DU-145 prostate
  GI50: 1690 nM
  TGI: 3050 nM
RXF 393 renal
  GI50: 1160 nM
  TGI: 2410 nM
NCI/ADR-RES ovarian
  GI50: 1650 nM
  TGI: 3050 nM
SN12C renal
  GI50: 1470 nM
  TGI: 2790 nM
COLO 205 colon
  GI50: 1770 nM
  TGI: 3150 nM
SR leukemia
  GI50: 1790 nM
  TGI: 4220 nM
A498 renal
  GI50: 1330 nM
  TGI: 2610 nM
MDA-MB-435
  GI50: 1650 nM
  TGI: 3010 nM
HOP-92 NSCLC
  GI50: 1390 nM
  TGI: 2760 nM
UACC-257 melanoma
  GI50: 1510 nM
  TGI: 2860 nM
MDA-MB-231 breast
  GI50: 1560 nM
  TGI: 2920 nM
OVCAR-5 ovarian
  GI50: 1680 nM
  TGI: 3080 nM
HT29 colon
  GI50: 1670 nM
  TGI: 3030 nM
SK-OV-3 ovarian
  GI50: 1500 nM
  TGI: 2820 nM
OVCAR-4 ovarian
  GI50: 1590 nM
  TGI: 2930 nM
